From patent publication US20240383921A1, “AMIDE AND UREA-CONTAINING TRICYCLIC KRAS INHIBITORS” (Erasca, Inc., priority 2021, published 2024)
pIC50: −log10 of the molar value.

How the values were obtained:
KRAS 4B G12C protein = target: T1, KRAS 4B G12C protein (Homo sapiens, UniProt P01116, G12C); experiment: KRAS G12C covalent adduct formation (CAF) assay, LC-MS; format: binding; details: 10 μM compound, 5 μM protein, 22° C.
T1 construct: made in house; host or cells: E. coli BL21
Protocol: This Example provides a protocol for assessing covalent adduct formation (CAF) between the compounds of Formula (I) and KRAS.
In vitro covalent adduct formation assay: Covalent adduct formation (CAF) reactions between Cys12 of the KRAS 4B G12C protein and the compounds disclosed herein were measured in vitro using liquid chromatography-mass spectrometry (LC-MS).
Recombinant Human KRAS 4B protein containing the G12C mutation was used in compound screening experiments. This protein contained 188 amino acids in total, including an N-terminal 6-Histidine tag, followed by a Tobacco Etch Virus (TEV) tag, followed by residues 1-169 of the native KRAS 4B sequence. The exact mass of the protein is 21,310 Da as determined by mass spectrometry. […]
The recombinant protein is expressed in E. coli BL21 cells and purified using affinity chromatography via a Ni-NTA column. […] The intact mass of the protein samples was measured by LC-MS using a QExactive+ mass spectrometer (Thermo Scientific). An amount of 500 ng total protein was injected onto a C8 reverse phase column, eluted with a seven-minute gradient of 30%-90% acetonitrile/0.1% formic acid, and analyzed for intact mass by the mass spectrometer. Adducts identified were confirmed to be within 1 Dalton of the expected mass, and the relative ratios of free:adduct protein were used to quantify the percentage of protein bound by the compound. […]

[1] = tested on: Ras Initiative (RI) KRAS G12C cells; experiment: phospho-ERK HTRF assay in RI KRAS G12C cells; format: cell-based; details: 11-point dose response starting at 2,500 nM, 4 hours or 16 hours treatment, read-out: pERK (RI)
Protocol: KRAS G12C mutant lines, NCI H358 (ATCC, CRL-5807), and Ras Initiative (RI) KRAS G12C were cultured according to published protocols and maintained at 37° C. in 5% CO2. The phospho-ERK HTRF assay was executed following provider's protocol (CisBio #64AERPEH). NCI-H358 or RI KRAS G12C cells were plated at a density of 50,000 cells per well in a 96-well plate (Corning #3903) in respective medias (for NCI-H358, RPMI+10% FBS+1% Pen/Strep, and for RI KRAS G12C, DMEM+10% FBS+1% Pen/Strep+4 μg/mL Blasticidin) and maintained at 37° C. in 5% CO2. Cells were allowed to adhere overnight and treated the following day with a Tecan D300e Digital Dispenser (Tecan Group Ltd., Switzerland) using an 11-point dose response starting at 2,500 nM of exemplified compounds followed by sequential 1:3 dilutions for either 4 hours or 16 hours. Following compound treatment, the cells were washed once with ice-cold PBS. Cells were lysed by adding 50 μL of lysis buffer (1×) supplemented with 1× Pierce Halt Protease and Phosphatase inhibitor and incubated for 30 minutes at 4° C. with shaking. After lysis, 16 μL of cell lysate from the 96-well cell-culture plate was transferred to a 384-well plate (Perkin Elmer #6007290). The premixed antibody solution was prepared by mixing (vol/vol) advanced phospho-ERK1/2 d2 antibody and advanced phospho-ERK1/2 Eu Cryptate antibody. The premixed antibody solution (4 μL) was added to the detection plate containing cell lysate. The detection plate was incubated overnight at 4° C., the HTRF signal was read the next day by using either a Spectramax M5 or Spectramax i3 microplate reader (Molecular Devices, San Jose, CA, USA), and data was processed according to manufacturer's protocol.
Examples were evaluated according to the above p-ERK assay

Row | SMILES | % CAF @ 60 min (KRAS 4B G12C protein) | pIC50 [1]
1 | C=CC(=O)N1[C@H](C)CN(c2nc(=O)n3c4c(c(-c5ccc(F)c6[nH]c(=O)[nH]c56)c(C(F)(F)F)cc24)SC[C@@H]3COC)C[C@@H]1C [Example 2, (3S,10S)-7-((3S,5R)-4-acryloyl-3,5-dimethylpiperazin-1-yl)-10-(7-fluoro-2-oxo-2,3-dihydro-1H-benzo[d]imidazol-4-yl)-3-(methoxymethyl)-9-(trifluoromethyl)-2,3-dihydro-5H-[1,4]thiazino[2,3,4-ij]quinazolin-5-one] | – | < 5.60
2 | C=CC(=O)N1CCN(c2nc(=O)n3c4c(c(-c5ccc(F)c6[nH]c(=O)[nH]c56)c(C(F)(F)F)cc24)SC[C@@H]3COC)CC1 [Example 3, (3S,10S)-7-(4-acryloylpiperazin-1-yl)-10-(7-fluoro-2-oxo-2,3-dihydro-1H-benzo[d]imidazol-4-yl)-3-(methoxymethyl)-9-(trifluoromethyl)-2,3-dihydro-5H-[1,4]thiazino[2,3,4-ij]quinazolin-5-one] | – | < 5.60
3 | C=CC(=O)N1[C@H](C)CN(c2nc(=O)n3c4c(c(-c5ccc(F)c6[nH]c(=O)[nH]c56)c(C(F)(F)F)cc24)SCC2(CCC2)C3)C[C@@H]1C [Example 4, 8′-((3S,5R)-4-acryloyl-3,5-dimethylpiperazin-1-yl)-11′-(7-fluoro-2-oxo-2,3-dihydro-1H-benzo[d]imidazol-4-yl)-10′-(trifluoromethyl)-2′H, 4′H,6′H-spiro[cyclobutane-1,3′-[1,4]thiazepino[2,3,4-ij]quinazolin]-6′-one] | – | < 5.60
4 | C=CC(=O)N1CCN(c2nc(=O)n3c4c(c(-c5ccc(F)c6sc(=O)[nH]c56)c(C(F)(F)F)cc24)SC[C@@H]3COC)CC1 [Example 7, (3S,10S)-7-(4-acryloylpiperazin-1-yl)-10-(7-fluoro-2-oxo-2,3-dihydrobenzo[d]thiazol-4-yl)-3-(methoxymethyl)-9-(trifluoromethyl)-2,3-dihydro-5H-[1,4]thiazino[2,3,4-ij]quinazolin-5-one] | – | 7.74
5 | C=CC(=O)N1CCN(c2nc(=O)n3c4c(c(-c5ccc(F)c6sc(=O)[nH]c56)c(C(F)(F)F)cc24)SCC2(CCC2)C3)CC1 [Example 9, 8′-(4-acryloylpiperazin-1-yl)-11′-(7-fluoro-2-oxo-2,3-dihydrobenzo[d]thiazol-4-yl)-10′-(trifluoromethyl)-2′H,4′H,6′H-spiro[cyclobutane-1,3′-[1,4]thiazepino[2,3,4-ij]quinazolin]-6′-one] | – | 6.65
6 | C=CC(=O)N1[C@H](C)CN(c2nc(=O)n3c4c(c(-c5ccc(F)c6sc(=O)n(C)c56)c(C(F)(F)F)cc24)SC[C@@H]3COC)C[C@@H]1C [Example 10, (3S)-7-((3S,5R)-4-acryloyl-3,5-dimethylpiperazin-1-yl)-10-(7-fluoro-3-methyl-2-oxo-2,3-dihydrobenzo[d]thiazol-4-yl)-3-(methoxymethyl)-9-(trifluoromethyl)-2,3-dihydro-5H-[1,4]thiazino[2,3,4-ij]quinazolin-5-one] | – | 7.34

Next, values leading:

Row | % CAF @ 60 min (KRAS 4B G12C protein) | pIC50 [1] | SMILES
7 | 75% | < 5.60 | C=CC(=O)N1[C@H](C)CN(c2nc(=O)n3c4c(c(-c5ccc(F)c6[nH]c(=O)[nH]c56)c(C(F)(F)F)cc24)SC[C@@H](OC)C3)C[C@@H]1C [Example 1, (3S)-8-((3S,5R)-4-acryloyl-3,5-dimethylpiperazin-1-yl)-11-(7-fluoro-2-oxo-2,3-dihydro-1H-benzo[d]imidazol-4-yl)-3-methoxy-10-(trifluoromethyl)-3,4-dihydro-2H,6H-[1,4]thiazepino[2,3,4-ij]quinazolin-6-one]
8 | – | < 5.60 | C=CC(=O)N1CCN(c2nc(=O)n3c4c(c(-c5ccc(F)c6[nH]c(=O)[nH]c56)c(C(F)(F)F)cc24)SCC2(CCC2)C3)CC1 [Example 5, 8′-(4-acryloylpiperazin-1-yl)-11′-(7-fluoro-2-oxo-2,3-dihydro-1H-benzo[d]imidazol-4-yl)-10′-(trifluoromethyl)-2′H,4′H,6′H-spiro[cyclobutane-1,3′-[1,4]thiazepino[2,3,4-ij]quinazolin]-6′-one]
9 | – | 7.17 | C=CC(=O)N1[C@H](C)CN(c2nc(=O)n3c4c(c(-c5ccc(F)c6sc(=O)[nH]c56)c(C(F)(F)F)cc24)SC[C@@H]3COC)C[C@@H]1C [Example 6, (3S,10S)-7-((3S,5R)-4-acryloyl-3,5-dimethylpiperazin-1-yl)-10-(7-fluoro-2-oxo-2,3-dihydrobenzo[d]thiazol-4-yl)-3-(methoxymethyl)-9-(trifluoromethyl)-2,3-dihydro-5H-[1,4]thiazino[2,3,4-ij]quinazolin-5-one]
10 | – | 6.77 | C=CC(=O)N1[C@H](C)CN(c2nc(=O)n3c4c(c(-c5ccc(F)c6sc(=O)[nH]c56)c(C(F)(F)F)cc24)SCC2(CCC2)C3)C[C@@H]1C [Example 8, 8′-((3S,5R)-4-acryloyl-3,5-dimethylpiperazin-1-yl)-11′-(7-fluoro-2-oxo-2,3-dihydrobenzo[d]thiazol-4-yl)-10′-(trifluoromethyl)-2′H,4′H,6′H-spiro[cyclobutane-1,3′-[1,4]thiazepino[2,3,4-ij]quinazolin]-6′-one]
